From PubChem BioAssay (NCI) come the findings set out here.

Each structure is given as a SMILES string. Where “and” joins values, the source holds several entries; their conditions need not be identical. Identical values can stand only once.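 Briefly, cells in 96-well plates were exposed to five compound concentrations for 48 h, and endpoints were estimated by linear interpolation. At the GI50, growth is halved. At the TGI there is no net growth.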

Common to all, as to assay: DTP human tumour cell line panel, 48 h
Test [1] has as its system A549 NSCLC.
Test [2] has as its system ACHN renal.
Test [3] relates to HCT-116 colon.
For test [4], the system named is HOP-62 NSCLC.
Test [5] relates to IGROV1 ovarian.
Test [6] concerns MOLT-4 leukemia.
Test [7] concerns NCI-H522 lung.
Test [8] relates to SK-MEL-28 melanoma.
For test [9], the system named is SK-MEL-5 melanoma.
The test system of test [10] is UO-31 renal.

`CN(C)CCCNC(=O)c1cncnc1Nc1ccc(OCc2cccc(F)c2)c(Cl)c1`: the GI50 in test [1] was 1.71 µM; in test [2], 1.7 µM; in test [3], 1.47 µM; in test [4] it was 1.75 µM; in test [5], 1.78 µM; in test [6], 1.67 µM. For the same compound, the GI50 in test [7] is 2 µM; in test [8], 1.79 µM; in test [9], 1.71 µM; in test [10], 1.46 µM. The TGI in [1] is 3.37 µM; in [2], 3.06 µM; in test [3] it was 2.79 µM; in [4], 3.48 µM; in test [5] it was 3.33 µM; in [6], 3.4 µM. In addition, the TGI is 3.86 µM in test [7], 3.22 µM in test [8], 3.08 µM in [9] and 2.77 µM in [10].
As for `COc1ccc(-c2nc(N3CCN(C(=O)C4CCCCC4)CC3)c3c4c(sc3n2)CCCC4)cc1`, the GI50 in test [1] is 50.1 µM; in test [2], 23.9 µM; in test [3], 34.2 µM; in test [4] it was 27.5 µM; in [5], 41.2 µM; in [6] it was above 100 µM. In addition, the GI50 in [7] was 27.9 µM; in [8], above 100 µM; in test [9] it was 68.9 µM; in test [10], 95.4 µM. The total growth inhibition concentration (TGI) is above 100 µM in [1]; above 100 µM in test [2]; above 100 µM in test [3]; 86 µM in test [4]; above 100 µM in test [5]; above 100 µM in [6]. Moreover, the TGI is 96.9 µM in [7], above 100 µM in test [8], above 100 µM in test [9] and above 100 µM in test [10].
In the case of `CCCCCCc1nc2nc(Cl)c(Cl)nc2[nH]1`, the GI50 is 4.34 µM in [1]; 6.94 µM in test [2]; 6.83 µM in test [3]; above 100 µM in test [4]; 18.9 µM in test [5]; 5.21 µM in test [6]. The GI50 in test [7] was 2.73 µM; in [8] it was above 100 µM; in test [9], 2.61 µM; in test [10] it was 4.88 µM. The total growth inhibition concentration (TGI) in [1], in test [2], in test [3], in test [4], in test [5] and in test [6] was above 100 µM in each case. Further, the TGI is 26.8 µM in [7], above 100 µM in test [8], above 100 µM in test [9] and above 100 µM in test [10].
Regarding `COc1ccc(OC)c(-c2cc(=O)c3c(OC)c(OC)c(OC)c(OC)c3o2)c1`, the concentration for total growth inhibition (TGI) was above 100 µM in test [1]; 71.3 µM in [2]; above 100 µM in test [3]; 79.5 µM in test [4]; above 100 µM in [5]; 63.2 µM in test [6]. The TGI in test [7] was 46.4 µM; in test [8], above 100 µM; in test [9], 39.1 µM; in test [10], above 100 µM.
Take `CCN(CC)CCNc1cc(-c2cccc(OC(F)(F)F)c2)nc2ccc(N3CCCC3)cc12`: the GI50 in test [1] is 1.71 µM and 1.73 µM and 2.55 µM; in test [2] it was 1.53 µM and 1.68 µM and 1.92 µM; in test [3], 1.24 µM and 1.26 µM and 1.54 µM; in [4], 1.52 µM and 1.75 µM and 1.88 µM; in test [5] it was 1.34 µM and 1.41 µM and 1.46 µM; in test [6] it was 1.84 µM and 1.92 µM and 2.08 µM. The GI50 in [7] was 1.88 µM and 1.64 µM and 1.92 µM; in test [8] it was 1.66 µM and 1.9 µM and 1.74 µM; in [9], 1.63 µM and 1.91 µM and 1.7 µM; in test [10], 1.23 µM and 1.35 µM and 1.46 µM. Also, the TGI in test [1] is 3.35 µM and 3.29 µM and 7.3 µM; in test [2] it was 2.9 µM and 3.28 µM and 3.93 µM; in test [3], 2.52 µM and 2.72 µM and 3.05 µM; in [4] it was 2.96 µM and 3.24 µM and 4 µM; in test [5], 2.87 µM and 3.04 µM and 3.05 µM; in test [6], 4.7 µM and 4.92 µM and 6.08 µM. Also, the TGI is 3.63 µM and 3.24 µM and 4 µM in [7]; 3.16 µM and 3.38 µM and 3.17 µM in test [8]; 2.99 µM and 3.35 µM and 3.17 µM in test [9]; 2.5 µM and 2.69 µM and 2.99 µM in [10].
For the compound `N#CS.N=C=S.N=C=S.[Cu+2].[NH2-].[NH2-].[NH2-].[NH2-].c1ccc2ncccc2c1`, the GI50 in [1] is 20.4 µM; in [2] it was above 100 µM; in test [3] it was above 100 µM; in test [4], 36.9 µM; in test [5], 55.7 µM; in [6] it was above 100 µM. The GI50 in [7] is 44.8 µM; in [8], above 100 µM; in [9], 17.8 µM; in test [10], 60.7 µM. Also, the TGI is 51.5 µM in [1]; above 100 µM in [2]; above 100 µM in test [3]; above 100 µM in test [4]; above 100 µM in [5]; above 100 µM in [6]. Besides, the TGI is above 100 µM in test [7], above 100 µM in [8], 38.7 µM in test [9] and above 100 µM in test [10].
Take `COc1ccc2c(c1OC)OCC(CN(C)C)C2=O` (stereo not given): the TGI in [1] was above 63.9 µM; in [2], 31.7 µM; in test [3], 31.4 µM; in [4], above 88.7 µM; in [5], 35.4 µM; in [6] it was 5.32 µM. Besides, the concentration for total growth inhibition (TGI) in [7] amounted to 0.472 µM; in [8] it was 32.3 µM; in [9], 31.6 µM; in [10], 32.5 µM.
`Cc1cn2c(/C=N/N=C(N)N)c(-c3cccnc3)nc2s1`: the GI50 in [1] is 16.3 µM; in test [2], 11.5 µM; in test [3], 8.62 µM; in [4], 10 µM; in test [5], 15.6 µM; in [6], 3.66 µM. Besides, the GI50 in test [7] was 12.1 µM; in [8], 12.4 µM; in test [9] it was 2.68 µM; in test [10] it was 6.1 µM. For the same compound, the TGI is 56.1 µM in [1]; 25.8 µM in [2]; 37.8 µM in test [3]; 24 µM in test [4]; 49.8 µM in test [5]; 38.6 µM in test [6]. In addition, the TGI in test [7] was found to be 39.6 µM; in test [8], 26.3 µM; in test [9], 13.7 µM; in test [10], 21.4 µM.
As for `NC1=NCCN1CC(=O)O`, the GI50 in [1], in test [2], in [3], in [4], in test [5] and in test [6] was above 10000 µM in each case. The GI50 in test [8], in test [9] and in [10] was above 10000 µM in each case. Further, the TGI in [1], in test [2], in test [3], in test [4], in test [5] and in [6] was above 10000 µM each time. The TGI in test [7], in test [8], in test [9] and in test [10] was above 10000 µM throughout.
On to `CCCCCCCCCCCCCCCCOP(=O)(O)OP(=O)(O)OCC1OC(n2ccc(N)nc2=O)C(O)C1O` (stereo not given), for which the TGI in [1], in [2], in test [3], in test [4], in [5] and in test [6] was above 100 µM in each case. The TGI in test [7], in test [8], in test [9] and in test [10] was above 100 µM throughout. Further, the GI50 in [7] was above 100 µM; in test [10], > 100 µM and 21.8 µM.
On to `C=CN(C)S(C)(=O)=O`, for which the GI50 in test [1], in [2], in test [3], in test [4], in test [5] and in test [6] was above 100 µM each time. Moreover, the GI50 in [7], in [8], in test [9] and in test [10] was above 100 µM each time. The TGI in [1], in test [2], in [3], in [4], in test [5] and in [6] was above 100 µM each time. Further, the TGI in test [7], in test [8], in test [9] and in [10] was above 100 µM throughout.
With `COc1cc(-c2ncn(/C=C\C(=O)OC(C)C)n2)cc(C(F)(F)F)c1`, the GI50 is 0.0609 µM and 0.0783 µM in test [1]; 0.0605 µM and 0.0657 µM in test [2]; 0.0528 µM and 0.0688 µM in test [3]; 0.295 µM and 0.262 µM in test [4]; 0.503 µM and 0.171 µM in test [5]; 0.0302 µM and 0.0282 µM in test [6]. Also, the concentration for 50% growth inhibition (GI50) was 0.0286 µM and 0.0535 µM in [7]; 0.0461 µM and 0.0693 µM in test [8]; 0.274 µM and 0.11 µM in test [9]; 0.0569 µM and 0.0489 µM in test [10]. For the same compound, the TGI in test [1] was 11.6 µM and 8.63 µM; in test [2], 12.9 µM and 13 µM; in test [3], 1.58 µM and 11.3 µM; in [4], 3.46 µM and 3.94 µM; in test [5], 15.8 µM and 15.6 µM; in test [7], 0.734 µM and 0.597 µM. Besides, the TGI was 2.24 µM and 8.58 µM in [8]; 1.8 µM and 2.72 µM in [9]; 4.18 µM and 11.7 µM in test [10].

The term GI50 denotes the concentration giving 50% growth inhibition. A word on the TGI: it is the concentration at which net growth stops. Low readings indicate greater sensitivity of the cells, high ones lower sensitivity of the cells.
